Tested on: HEK293 cells
Assay: Preliminary screening as DNA vectors, GFP transfection of HEK293 cells
Format: cell-based
Conditions: amino lipid/DOPE liposome with 75 ng plasmid DNA (psin-EGFP-IRES-Puro); number of GFP-expressing cells divided by total nuclei (Hoechst)
Description: Cell line: HEK293 cells (ATCC CRL-1573™)
Medium: DMEM supplemented with 10% fetal bovine serum (Invitrogen)
Mode of screening: cell transfection on 96-well plates
Detection (readout): percentage of the number of GFP fluorescent cells relative to the total number of cells (the total number of cells was measured using nucleus dye Hoechst—see FIG. 2). Lipofectamine2000 (Invitrogen) was used as positive control, according to the manufacturer's instructions.
Method: an 8-channel pipette was used for sample addition. The contents shown were for a single well of a 96-well flat plate.
1. The compound (0.01 mmol) prepared in Example 1 was dissolved in 1 mL of anhydrous ethanol. After ultrasonically dissolved, 10 μL of the resultant amino lipid solution in ethanol was taken and mixed with 5 μL of DOPE solution in ethanol (0.01 m), and then to the obtained mixture was added 35 μL of 0.2M sodium acetate buffer (pH 5.6), and 50 μL of liposome solution was prepared by vortex at a constant rotating speed for 30 s. 4 μL was taken from the 50 μL liposome solution and added to 46 μL of 0.02M sodium acetate buffer (pH 5.6), and the final liposome solution was formed by vortex at a constant rotating speed for 30 s. 5 μL was taken from the final liposome solution and mixed with 75 ng plasmid DNA (psin-EGFP-IRES-Puro, Clontech) dissolved in 5 μL of 0.02 M sodium acetate buffer, and was allowed to stay at room temperature for 30 min to form a lipid/DNA transfection complex.
2. 10 μL of the lipid/DNA transfection complex was incubated at room temperature for 30 min, followed by addition of 90 μL of fresh resuspended cells (3-5×10^4 cells) and mixing with a pipette. 100 μL of cells+lipid/DNA complex was transferred to separate wells of a 96-well culture plate immediately, and placed in an incubator containing 5% CO2 at 37° C.
3. Hoechst33258 (Invitrogen) was added at a final concentration of 0.2 μg/mL to the cells 20 to 24 hours after initial cell transfection, and cultured in darkness at 37° C. for 15 min. Afterwards, the cells were washed once with a PBS solution, and then added with medium for culture for 20 to 24 h.
4. The cells were placed in a high-throughput confocal microscope (Molecular Devices ImageXpress), and four visual fields of the image of the cells were captured for each well, and images at three laser wavelengths were captured for each sample: bright field images of cells (FIG. 2(a) and FIG. 2(b)), Hoechst-staining images showing total nuclei (FIG. 2(c) and FIG. 2(d)) and GFP images showing success in transfection with the plasmid DNA and the expression of GFP (FIG. 2(e) and FIG. 2(f)). MetaXpress software was used to separately count the cells in the Hoechst-staining images and GFP images, and then the number of cells expressing GFP was divided by the total number of nuclei to give the absolute cell transfection efficiency. The absolute transfection efficiency was calculated as follows: […]

SMILES | Absolute DNA transfection efficiency in HEK293 cells
CCCCCCCCCCCCCCCCCCSc1nc(NCCCCCCCCCCCCCCCC)nc(NCC2CCN(C)CC2)n1 [S18N16 D10] | 0.1%
CCCCCCCCCSc1nc(NCCCCCCCC)nc(NCCCN2CCOCC2)n1 [S9N8 D8] | 12.2%
CCCCCCCCCCCCCCCSc1nc(NCCN2CCCC2)nc(SCCCCCCC)n1 [S7S15 D3] | 4.6%
CCCCCCCCCCCCCCCCCCNc1nc(NCCN2CCCC2)nc(SCCCCCCCCC)n1 [S9N18 D3] | 33.8%
CCCCCCCCCCCCSc1nc(NCCCCCCCCC)nc(NCCN2CCN(C)CC2)n1 [S12N9 D5] | 20.2%
CCCCCCCCCCCCCCCCCCSc1nc(NCCCCCCCCCCCCCCCC)nc(NCCCN2CCOCC2)n1 [S18N16 D8] | 0.0%
CCCCCCCCCSc1nc(NCCCCCCC)nc(NCCCN(C)C)n1 [S9N7 D6] | 12.4%
CCCCCCCCCCCCCCCCNc1nc(NCCN(C)C)nc(SCCCCCCCC)n1 [S8N16 D1] | 7.1%
CCCCCCCCCCSc1nc(NCCN2CCN(C)CC2)nc(SCCCCCC)n1 [S6S10 D5] | 12.4%
CCCCCCCCCCCCCCCSc1nc(NCCCCCC)nc(NCCN(CC)CC)n1 [S15N6 D7] | 5.1%
CCCCCCCCCCCSc1nc(NCCCCCCC)nc(NCCCN2CCOCC2)n1 [S11N7 D8] | 13.4%
CCCCCCCCCCCSc1nc(NCCN2CCN(C)CC2)nc(SCCCCCCCC)n1 [S8S11 D5] | 10.6%
CCCCCCCCSc1nc(NCCCCCC)nc(NCCCN(C)C)n1 [S8N6 D6] | 4.3%
CCCCCCCCCCCCCCCCNc1nc(NCCCN(C)C)nc(SCCCCCCCCC)n1 [S9N16 D6] | 29.7%
CCCCCCCCCCCCCCCSc1nc(NCCCCCCCCCCCCC)nc(NCCN2CCCCC2)n1 [S15N13 D4] | 0.0%
CCCCCCCCCCCNc1nc(NCCN2CCCC2)nc(SCCCCCCC)n1 [S7N11 D3] | 25.3%
CCCCCCCCCCCCCCCCCCNc1nc(NCCCN2CCN(C)CC2)nc(SCCCCCCCCCCCC)n1 [S12N18 D9] | 0.2%
CCCCCCCCCCSc1nc(NCCCN2CCN(C)CC2)nc(SCCCCCCC)n1 [S7S10 D9] | 23.9%
CCCCCCCCCCCNc1nc(NCC2CCN(C)CC2)nc(SCCCCCC)n1 [S6N11 D10] | 7.9%
CCCCCCCCCCSc1nc(NCCCCCCCC)nc(NCCCN(C)C)n1 [S10N8 D6] | 10.7%
CCCCCCCCCCCCCCCNc1nc(NCCN2CCCCC2)nc(SCCCCCCC)n1 [S7N15 D4] | 4.9%

SMILES | Absolute DNA transfection efficiency in HEK293 cells
CCCCCCCCCCCCCNc1nc(NCCN2CCOCC2)nc(SCCCCCCC)n1 [S7N13 D2] | 22.1%
CCCCCCCCCCCCCCCCCCNc1nc(NCCN2CCCC2)nc(SCCCCCCCCCCCCCCC)n1 [S15N18 D3] | 0.7%
CCCCCCCCCCCCCCSc1nc(NCCCCCC)nc(NCCN2CCCC2)n1 [S14N6 D3] | 23.6%
CCCCCCCCCCCCCCCCNc1nc(NCCN(C)C)nc(SCCCCCCCCCCCCCCCC)n1 [S16N16 D1] | 0.7%
CCCCCCCCSc1nc(NCCCCCC)nc(NCCCN2CCN(C)CC2)n1 [S8N6 D9] | 2.2%
CCCCCCCCCCCCCCCNc1nc(NCCN2CCCCC2)nc(SCCCCCCCCCCC)n1 [S11N15 D4] | 9.0%
CCCCCCCCSc1nc(NCCCN2CCOCC2)nc(SCCCCCC)n1 [S6S8 D8] | 0.6%
CCCCCCCCCCCCCCCCCCNc1nc(NCCN2CCOCC2)nc(SCCCCCCCCCCCCCC)n1 [S14N18 D2] | 0.0%
CCCCCCCCCCCCNc1nc(NCCCN2CCOCC2)nc(SCCCCCCCC)n1 [S8N12 D8] | 16.1%
CCCCCCCCCCCCCCCCCCSc1nc(NCCCCCCCCCCC)nc(NCCN2CCN(C)CC2)n1 [S18N11 D5] | 6.3%
CCCCCCCCCCCSc1nc(NCCN2CCCCC2)nc(SCCCCCC)n1 [S6S11 D4] | 6.2%
CCCCCCCCCCCCCCSc1nc(NCCCCCCC)nc(NCCN(CC)CC)n1 [S14N7 D7] | 10.5%
CCCCCCCCCCCCSc1nc(NCCN(C)C)nc(SCCCCCC)n1 [S6S12 D1] | 6.3%
CCCCCCCCCCCCCCCSc1nc(NCCCN2CCOCC2)nc(SCCCCCC)n1 [S6S15 D8] | 11.5%
CCCCCCCCCCCCSc1nc(NCCCCCCC)nc(NCCN(C)C)n1 [S12N7 D1] | 6.9%
CCCCCCCCSc1nc(NCCN(C)C)nc(SCCCCCC)n1 [S6S8 D1] | 1.9%
CCCCCCCCCCCCCCSc1nc(NCCN(C)C)nc(SCCCCCC)n1 [S6S14 D1] | 8.3%
CCCCCCCCCCCCCCCCCCSc1nc(NCCCCCCCCC)nc(NCCN2CCOCC2)n1 [S18N9 D2] | 3.4%
CCCCCCCCCCCCSc1nc(NCCCCCC)nc(NCC2CCN(C)CC2)n1 [S12N6 D10] | 0.1%
CCCCCCCCCCCCCCCCCCNc1nc(NCCN2CCOCC2)nc(SCCCCCCCCCCCCCCC)n1 [S15N18 D2] | 0.0%
CCCCCCCCNc1nc(NCCCN2CCOCC2)nc(SCCCCCC)n1 [S6N8 D8] | 0.0%

SMILES | Absolute DNA transfection efficiency in HEK293 cells
CCCCCCCCCCCCSc1nc(NCCCN2CCOCC2)nc(N(CCCCCCCCCCCC)CCCCCCCCCCCC)n1 [S12^2N12 D8] | 0.0%
CCCCCCCSc1nc(NCCN(CC)CC)nc(SCCCCCCC)n1 [S7S7 D7] | 9.3%
CCCCCCCCCCCCCCCCCCNc1nc(NCCN(C)C)nc(SCCCCCCCCCCCCCCC)n1 [S15N18 D1] | 0.6%
CCCCCCCCCCCSc1nc(NCCCCCCC)nc(NCCN(C)C)n1 [S11N7 D1] | 27.6%
CCCCCCCCCCCCSc1nc(NCCCCCCC)nc(NCCN(CC)CC)n1 [S12N7 D7] | 3.4%
CCCCCCCCCCCSc1nc(NCCCCCCCC)nc(NCCN2CCN(C)CC2)n1 [S11N8 D5] | 19.3%
CCCCCCCNc1nc(NCCN2CCCCC2)nc(SCCCCCC)n1 [S6N7 D4] | 1.1%
CCCCCCCCCSc1nc(NCCN(C)C)nc(SCCCCCCCC)n1 [S8S9 D1] | 15.6%
CCCCCCCCCCCCCCCCCCSc1nc(NCCCCCCC)nc(NCCN2CCCC2)n1 [S18N7 D3] | 15.6%
CCCCCCCCCCCCCCSc1nc(NCCCCCCCCCCCCC)nc(NCCCN(C)C)n1 [S14N13 D6] | 2.6%
CCCCCCCCCNc1nc(NCC2CCN(C)CC2)nc(SCCCCCCCC)n1 [S8N9 D10] | 36.3%
CCCCCCCCCCCCCCCCCCSc1nc(NCCCCCCC)nc(NCCN(CC)CC)n1 [S18N7 D7] | 4.5%
CCCCCCCCCCCCCCCCCCSc1nc(NCCCN2CCOCC2)nc(N(CCCCCCCCCCCC)CCCCCCCCCCCC)n1 [S18^2N12 D8] | 0.0%
CCCCCCCCCCCCCCCCCCNc1nc(NCCN2CCN(C)CC2)nc(SCCCCCCCC)n1 [S8N18 D5] | 8.6%
CCCCCCCCCCCCCCCCNc1nc(NCCN2CCOCC2)nc(SCCCCCCCCCCCCCCCC)n1 [S16N16 D2] | 0.0%
CCCCCCCCCCCCCCCNc1nc(NCCCN(C)C)nc(SCCCCCCCC)n1 [S8N15 D6] | 23.7%
CCCCCCCCCCCCCCCCSc1nc(NCCCCCCCCCCCC)nc(NCCN2CCCCC2)n1 [S16N12 D4] | 0.0%
CCCCCCCCCCCCCCCCSc1nc(NCCCCCC)nc(NCCN2CCCCC2)n1 [S16N6 D4] | 6.0%
CCCCCCCCCCCSc1nc(NCCN2CCN(C)CC2)nc(SCCCCCC)n1 [S6S11 D5] | 32.7%

Source: patent publication US20230123334A1, “AMINO LIPID COMPOUND, PREPARATION METHOD THEREFOR, AND APPLICATION THEREOF” (SHENZHEN SHENXIN BIOTECHNOLOGY CO., LTD., priority 2020, published 2023)
